Test results published in patent US20240252506A1 (Hoffmann-La Roche Inc., priority 2021, published 2024).
In brackets after ≈: the same amount, converted by molar mass.

These compounds were tested on Escherichia coli ATCC 25922 (assay: Minimal Inhibitory Concentration (MIC) determination, broth microdilution (CLSI M07-A10)). Conditions: Escherichia coli, ATCC25922, strain Escherichia coli ATCC 25922, 18-24 hours at 35±2° C., lowest concentration for complete growth inhibition (no visible growth), read-out: Escherichia coli growth inhibition MIC.
Format: cell-based
Method: Minimal Inhibitory Concentration (MIC) Determination:
The MIC of antibacterial compounds against multiple species and strains was determined using the broth microdilution method according to M07-A10 Clinical and Laboratory Standards Institute (CLSI) guidelines, using the appropriate broth medium. In short, the compound plates were prepared by dispensing 100 μL of each stock solution in the first well of a 96 well microtiter plate (MTP) at a concentration 100-fold higher than the final concentration desired in broth. Eleven serial 2-fold dilutions of the highest concentration were made in DMSO for new compounds and in water (or appropriate solution) for reference compounds [2]. 1 μL of each well was transferred in a new MTP, which served as the test plate by subsequent inoculation. This bacterial suspension was prepared from strains that were first sub-cultured on agar plates and incubated for 18-24 hours as appropriate. Following incubation, the inoculum was prepared from isolated colonies and adjusted to 0.5 McFarland turbidity standard (1 to 2×10^8 Colony Forming Units (CFU)/mL) in 0.9% saline. The bacterial suspension was then diluted 1:200 in appropriate sterile medium and within 15 minutes 100 μL/well were dispensed. Negative controls (lack of bacterial cells) and growth control wells (lack of compound) were included in all plates. MTPs were incubated for 18-24 hours at 35±2° C. in ambient air. The MIC value of each compound, expressed as μg/mL, was determined as the lowest concentration required for complete growth inhibition (no visible growth). • [1] CLSI (2015) Methods for dilution antimicrobial susceptibility tests for bacteria that grow aerobically; Approved Standard, Tenth Edition. CLSI Document M7-A10 (ISBN 1-56238-987-4). Wayne, PA: Clinical and Laboratory Standards Institute, 19087, USA. • [2] CLSI (2017) Performance Standards for Antimicrobial Susceptibility Testing; Twenty-Fifth Informational Supplement. CLSI Document M100-S27, CLSI, Wayne, Pennsylvania 19087, USA.
Table 1 provides the Minimal Inhibitory Concentrations (MIC) in micrograms per millilitre of the compounds of present invention obtained against the strain Escherichia coli ATCC 25922.

Compared with CNCc1nc2cc3c(c(F)c2[nH]1)CC(CN1CCC2(CC1)CN(c1cnc4c(n1)NC(=O)CO4)C(=O)O2)C3 (single isomer, unassigned) [Example 59, 6-[8-[[8-Fluoro-2-(methylaminomethyl)-1,5,6,7-tetrahydrocyclopenta[f]benzimidazol-6-yl]methyl]-2-oxo-1-oxa-3,8-diazaspiro[4.5]decan-3-yl]-4H-pyrazino[2,3-b][1,4]oxazin-3-one], CNCc1nc2cc3c(c(F)c2o1)CC(CN1CCC2(CC1)CN(c1cnc4c(n1)NC(=O)CO4)C(=O)O2)C3 (single isomer, unassigned) [Example 95, 6-[8-[[8-fluoro-2-(methylaminomethyl)-6,7-dihydro-5H-cyclopenta[f][1,3]benzoxazol-6-yl]methyl]-2-keto-1-oxa-3,8-diazaspiro[4.5]decan-3-yl]-4H-pyrazino[2,3-b][1,4]oxazin-3-one] is 2-fold higher in MIC: 0.125 µg/mL (≈ 0.233 µM) for the first, 0.25 µg/mL (≈ 0.465 µM) for the second.

Compared with CNC(CO)c1nc2c(F)c3c(c(F)c2[nH]1)CC(CN1CCC2(CC1)CN(c1cnc4c(n1)NC(=O)CO4)C(=O)O2)C3 (single isomer, unassigned) [Example 66, 6-[8-[[4,8-Difluoro-2-[2-hydroxy-1-(methylamino)ethyl]-3,5,6,7-tetrahydrocyclopenta[f]benzimidazol-6-yl]methyl]-2-oxo-1-oxa-3,8-diazaspiro[4.5]decan-3-yl]-4H-pyrazino[2,3-b][1,4]oxazin-3-one], NCc1nc2cc3c(c(F)c2o1)CC(CN1CCC2(CC1)CN(c1cnc4c(n1)NC(=O)CO4)C(=O)O2)C3 (single isomer, unassigned) [Example 104, 6-[2-oxo-8-[[2-(aminomethyl)-8-fluoro-6,7-dihydro-5H-cyclopenta[f][1,3]benzoxazol-6-yl]methyl]-1-oxa-3,8-diazaspiro[4.5]decan-3-yl]-4H-pyrazino[2,3-b][1,4]oxazin-3-one] is 2-fold lower in MIC: 0.25 µg/mL (≈ 0.428 µM) for the first, 0.125 µg/mL (≈ 0.239 µM) for the second.

First: O=C1COc2ncc(N3CC4(CCN(CC5Cc6cc7nc(CN8CC(O)C8)oc7c(F)c6C5)CC4)OC3=O)nc2N1 (single isomer, unassigned) [Example 98, 6-[8-[[8-fluoro-2-[(3-hydroxyazetidin-1-yl)methyl]-6,7-dihydro-5H-cyclopenta[f][1,3]benzoxazol-6-yl]methyl]-2-oxo-1-oxa-3,8-diazaspiro[4.5]decan-3-yl]-4H-pyrazino[2,3-b][1,4]oxazin-3-one]
Second: O=C1COc2ncc(N3CC4(CCN(CC5Cc6cc7nc(C8CNC8)oc7c(F)c6C5)CC4)OC3=O)nc2N1 (single isomer, unassigned) [Example 100, 6-[2-oxo-8-[[2-(azetidin-3-yl)-8-fluoro-6,7-dihydro-5H-cyclopenta[f][1,3]benzoxazol-6-yl]methyl]-1-oxa-3,8-diazaspiro[4.5]decan-3-yl]-4H-pyrazino[2,3-b][1,4]oxazin-3-one]
The MIC of the first is 4-fold higher: 0.5 µg/mL (≈ 0.863 µM) for the first, 0.125 µg/mL (≈ 0.227 µM) for the second.

Work on O=C1COc2ncc(N3CC4(CCN(CC5Cc6cc7nc([C@@H]8CCN8)oc7c(F)c6C5)CC4)OC3=O)nc2N1 (single isomer, unassigned) [Example 106] yielded an MIC of 0.125 µg/mL (≈ 0.227 µM).

Same assay, conditions: strain Escherichia coli ATCC 25922, 18-24 hours at 35±2° C., lowest concentration for complete growth inhibition (no visible growth)

CNC(CO)c1nc2c(F)c3c(c(F)c2[nH]1)CC(CN1CCC2(CC1)CN(c1cnc4c(n1)NC(=O)CO4)C(=O)O2)C3 (single isomer, unassigned) [Example 67, 6-[8-[[4,8-Difluoro-2-[2-hydroxy-1-(methylamino)ethyl]-3,5,6,7-tetrahydrocyclopenta[f]benzimidazol-6-yl]methyl]-2-oxo-1-oxa-3,8-diazaspiro[4.5]decan-3-yl]-4H-pyrazino[2,3-b][1,4]oxazin-3-one] and CNCc1nc2cc3c(c(F)c2o1)CC(CN1CCC2(CC1)CN(c1cnc4c(n1)NC(=O)CO4)C(=O)O2)C3 (single isomer, unassigned) [Example 94, 6-[8-[[8-fluoro-2-(methylaminomethyl)-6,7-dihydro-5H-cyclopenta[f][1,3]benzoxazol-6-yl]methyl]-2-keto-1-oxa-3,8-diazaspiro[4.5]decan-3-yl]-4H-pyrazino[2,3-b][1,4]oxazin-3-one] are the same in “Escherichia coli growth inhibition MIC” value: 0.25 µg/mL for the first, 0.25 µg/mL for the second.

NCCn1nnc2cc3c(c(F)c21)CC(CN1CCC2(CC1)CN(c1cnc4c(n1)NC(=O)CO4)C(=O)O2)C3 (single isomer, unassigned) [Example 82, 6-[2-oxo-8-[[1-(2-aminoethyl)-8-fluoro-6,7-dihydro-5H-cyclopenta[f]benzotriazol-6-yl]methyl]-1-oxa-3,8-diazaspiro[4.5]decan-3-yl]-4H-pyrazino[2,3-b][1,4]oxazin-3-one] and NCCc1nc2cc3c(c(F)c2o1)CC(CN1CCC2(CC1)CN(c1cnc4c(n1)NC(=O)CO4)C(=O)O2)C3 (single isomer, unassigned) [Example 102, 6-[8-[[2-(2-aminoethyl)-8-fluoro-6,7-dihydro-5H-cyclopenta[f][1,3]benzoxazol-6-yl]methyl]-2-oxo-1-oxa-3,8-diazaspiro[4.5]decan-3-yl]-4H-pyrazino[2,3-b][1,4]oxazin-3-one] are the same in “Escherichia coli growth inhibition MIC” value: 0.125 µg/mL for the first, 0.125 µg/mL for the second.

CNCCn1nc2cc(F)c3c(c2n1)CC(CN1CCC2(CC1)CN(c1cnc4c(n1)NC(=O)CO4)C(=O)O2)C3 (single isomer, unassigned) [Example 87, 6-[8-[[5-fluoro-2-[2-(methylamino)ethyl]-7,8-dihydro-6H-cyclopenta[e]benzotriazol-7-yl]methyl]-2-oxo-1-oxa-3,8-diazaspiro[4.5]decan-3-yl]-4H-pyrazino[2,3-b][1,4]oxazin-3-one] and C[C@H](N)Cn1nc2cc(F)c3c(c2n1)CC(CN1CCC2(CC1)CN(c1cnc4c(n1)NC(=O)CO4)C(=O)O2)C3 (single isomer, unassigned) [Example 89] are the same in “Escherichia coli growth inhibition MIC” value: 0.125 µg/mL for the first, 0.125 µg/mL for the second.

First: O=C1COc2ncc(N3CC4(CCN(CC5Cc6cc7nc(CN8CC(O)C8)oc7c(F)c6C5)CC4)OC3=O)nc2N1 (single isomer, unassigned) [Example 99, 6-[8-[[8-fluoro-2-[(3-hydroxyazetidin-1-yl)methyl]-6,7-dihydro-5H-cyclopenta[f][1,3]benzoxazol-6-yl]methyl]-2-oxo-1-oxa-3,8-diazaspiro[4.5]decan-3-yl]-4H-pyrazino[2,3-b][1,4]oxazin-3-one]
Second: NCc1nc2cc3c(c(F)c2o1)CC(CN1CCC2(CC1)CN(c1cnc4c(n1)NC(=O)CO4)C(=O)O2)C3 (single isomer, unassigned) [Example 105, 6-[2-oxo-8-[[2-(aminomethyl)-8-fluoro-6,7-dihydro-5H-cyclopenta[f][1,3]benzoxazol-6-yl]methyl]-1-oxa-3,8-diazaspiro[4.5]decan-3-yl]-4H-pyrazino[2,3-b][1,4]oxazin-3-one]
The “Escherichia coli growth inhibition MIC” value of the first is 4-fold higher: 1 µg/mL for the first, 0.25 µg/mL for the second.

In the case of O=C1COc2ncc(N3CC4(CCN(CC5Cc6cc7nc(C8CNC8)oc7c(F)c6C5)CC4)OC3=O)nc2N1 (single isomer, unassigned) [Example 101, 6-[2-oxo-8-[[2-(azetidin-3-yl)-8-fluoro-6,7-dihydro-5H-cyclopenta[f][1,3]benzoxazol-6-yl]methyl]-1-oxa-3,8-diazaspiro[4.5]decan-3-yl]-4H-pyrazino[2,3-b][1,4]oxazin-3-one], the “Escherichia coli growth inhibition MIC” value is reported as 0.25 µg/mL.

With NCCn1nnc2cc3c(c(F)c21)CC(CN1CCC2(CC1)CN(c1cnc4c(n1)NC(=O)CO4)C(=O)O2)C3 (single isomer, unassigned) [Example 81, 6-[2-oxo-8-[[1-(2-aminoethyl)-8-fluoro-6,7-dihydro-5H-cyclopenta[f]benzotriazol-6-yl]methyl]-1-oxa-3,8-diazaspiro[4.5]decan-3-yl]-4H-pyrazino[2,3-b][1,4]oxazin-3-one] the “Escherichia coli growth inhibition MIC” value was at most 0.06 µg/mL.
In the case of CNCCn1nc2cc(F)c3c(c2n1)CC(CN1CCC2(CC1)CN(c1cnc4c(n1)NC(=O)CO4)C(=O)O2)C3 (single isomer, unassigned) [Example 86, 6-[8-[[5-fluoro-2-[2-(methylamino)ethyl]-7.8-dihydro-6H-cyclopenta[e]benzotriazol-7-yl]methyl]-2-oxo-1-oxa-3,8-diazaspiro[4.5]decan-3-yl]-4H-pyrazino[2,3-b][1,4]oxazin-3-one], the “Escherichia coli growth inhibition MIC” value is reported as at most 0.06 µg/mL.
For C[C@H](N)Cn1nc2cc(F)c3c(c2n1)CC(CN1CCC2(CC1)CN(c1cnc4c(n1)NC(=O)CO4)C(=O)O2)C3 (single isomer, unassigned) [Example 88], the “Escherichia coli growth inhibition MIC” value was at most 0.06 µg/mL.
With NCCc1nc2cc3c(c(F)c2o1)CC(CN1CCC2(CC1)CN(c1cnc4c(n1)NC(=O)CO4)C(=O)O2)C3 (single isomer, unassigned) [Example 103, 6-[8-[[2-(2-aminoethyl)-8-fluoro-6,7-dihydro-5H-cyclopenta[f][1,3]benzoxazol-6-yl]methyl]-2-oxo-1-oxa-3,8-diazaspiro[4.5]decan-3-yl]-4H-pyrazino[2,3-b][1,4]oxazin-3-one] the “Escherichia coli growth inhibition MIC” value was at most 0.06 µg/mL.
